*1 amine or outer side, *2 acyl side, *3 side chain or, on linkers, in order; H or OH if unused. Where a SMILES comes first, the peptide text is derived from it. Bridges are numbered along the chain shown (N, C = ends). [ ]: non-standard residue; d: D form. The star is where a group is joined. X1 = COc1cc2cc(c1Cl)N(C)C(=O)C[C@H](OC(=O)[C@H](C)N(C)C(=O)CCSSC(C)CCC(=O)*)[C@]1(C)O[C@H]1[C@H](C)[C@@H]1C[C@@](O)(NC(=O)O1)[C@H](OC)/C=C/C=C(\C)C2; 1Nal = N[C@@H](Cc1cccc2ccccc12)C(=O)O; TBMB = c1c(C[*:1])cc(C[*:3])cc1C[*:2]; Tle = CC(C)(C)[C@H](N)C(=O)O; βAla = NCCC(=O)O; Sar = CNCC(=O)O
Test system: 3LL syngeneic model
Assay: In vivo efficacy of BT1718 in 3LL syngeneic model (Example 9)
Set-up: species or system Mus Musculus
Experimental: The objective of this study was to evaluate the in vivo anti-tumor efficacy of BT1718 in the treatment of the subcutaneous 3LL syngeneic model in C57BL/6 mice.
The 3LL tumor cells were maintained in vitro as a monolayer culture in medium supplemented with 10% heat inactivated fetal bovine serum at 37° C. in an atmosphere of 5% CO2 in air. The tumor cells were routinely subcultured twice weekly by trypsin-EDTA treatment. The cells growing in an exponential growth phase were harvested and counted for tumor inoculation.
Each mouse was inoculated subcutaneously at the right flank with 3LL tumor cells (1×106) in 0.1 ml of PBS for tumor development. The animals were randomized and treatment was started when the average tumor volume reaches approximately 105 mm^3 for the efficacy study. The test article administration and the animal numbers in each group were shown in the experimental design table (Table 48).
All the procedures related to animal handling, care and the treatment in the study were performed according to the guidelines of the Association for Assessment and Accreditation of Laboratory Animal Care (AAALAC). At the time of routine monitoring, the animals were daily checked for any effects of tumor growth and treatments on normal behavior such as mobility, food and water consumption (by looking only), body weight gain/loss (body weights were measured every day), eye/hair matting and any other abnormal effect as stated in the protocol. Death and observed clinical signs were recorded on the basis of the numbers of animals within each subset.
The major endpoint was to see if the tumor growth could be delayed or mice could be cured. Tumor size was measured three times weekly in two dimensions using a caliper, and the volume was expressed in mm^3 using the formula: V=0.5 a×b2 where a and b are the long and short diameters of the tumor, respectively. The tumor size was then used for calculations of T/C value. The T/C value (in percent) is an indication of antitumor effectiveness; T and C are the mean volumes of the treated and control groups, respectively, on a given day.
TGI was calculated for each group using the formula: TGI (%)=[1−(Ti−T0)/(Vi−V0)]×100; Ti is the average tumor volume of a treatment group on a given day, T0 is the average tumor volume of the treatment group on the day of treatment start, Vi is the average tumor volume of the vehicle control group on the same day with Ti, and V0 is the average tumor volume of the vehicle group on the day of treatment start.
Summary statistics, including mean and the standard error of the mean (SEM), are provided for the tumor volume of each group at each time point.
Statistical analysis of difference in tumor volume among the groups was conducted on the data obtained at the best therapeutic time point after the final dose.
A one-way ANOVA was performed to compare tumor volume among groups, and when a significant F-statistics (a ratio of treatment variance to the error variance) was obtained, comparisons between groups were carried out with Games-Howell test. All data were analyzed using Prism. P<0.05 was considered to be statistically significant.

COc1cc2cc(c1Cl)N(C)C(=O)C[C@H](OC(=O)[C@H](C)N(C)C(=O)CCSSC(C)CCC(=O)NCCC(=O)N(C)CC(=O)N(C)CC(=O)N(C)CC(=O)N(C)CC(=O)N(C)CC(=O)N(C)CC(=O)N(C)CC(=O)N(C)CC(=O)N(C)CC(=O)N(C)CC(=O)N[C@@H](C)C(=O)N[C@H]1CSCc3cc4cc(c3)CSC[C@H](NC(=O)[C@@H](C)NC(=O)[C@H](Cc3cccc5ccccc35)NC(=O)[C@H](CCC(=O)O)NC(=O)[C@H](CC(N)=O)NC(=O)[C@@H](C)NC1=O)C(=O)N[C@@H](CCC(=O)O)C(=O)N[C@@H](CC(=O)O)C(=O)N[C@@H](Cc1ccccc1)C(=O)N[C@@H](Cc1ccc(O)cc1)C(=O)N[C@@H](CC(=O)O)C(=O)N[C@@H](C(C)(C)C)C(=O)N[C@H](C(N)=O)CSC4)[C@]1(C)O[C@H]1[C@H](C)[C@@H]1C[C@@](O)(NC(=O)O1)[C@H](OC)/C=C/C=C(\C)C2 (stereo partly shown) [BT1718] ({X1-βAla}-[Sar][Sar][Sar][Sar][Sar][Sar][Sar][Sar][Sar][Sar]AC[dA]NE[1Nal][dA]CEDFYD[Tle]C-NH2; linker 12-18-25 via TBMB (inferred))
TGI (1 mg/kg, day 14): 104.9% | Tumor Volume (1 mg/kg, day 14): 2649 mm^3 | TGI (3 mg/kg, day 14): 69.9% | Tumor Volume (3 mg/kg, day 14): 1764 mm^3 | TGI (10 mg/kg, day 14): 89.9 | Tumor Volume (10 mg/kg, day 14): 350 mm^3 | tumor volume trace over time (1 mpk biw, day 0): 106 ± 10 mm^3 | tumor volume trace over time (1 mpk biw, day 2): 239 ± 47 mm^3 | tumor volume trace over time (1 mpk biw, day 4): 405 ± 98 mm^3 | tumor volume trace over time (1 mpk biw, day 7): 765 ± 190 mm^3 | tumor volume trace over time (1 mpk biw, day 9): 1120 ± 267 mm^3 | tumor volume trace over time (1 mpk biw, day 11): 1568 ± 392 mm^3 | T/C (1 mpk biw, day 14): 104.9% | TGI (1 mpk biw, day 14): −5.1% | tumor volume trace over time (1 mpk biw, day 14): 2649 ± 553 mm^3 | Tumor Volume (1 mpk, biw, day 14, Mean ± SEM): 2649 ± 553 mm^3 | tumor volume trace over time (3 mpk biw, day 0): 105 ± 9 mm^3 | tumor volume trace over time (3 mpk biw, day 2): 234 ± 48 mm^3 | tumor volume trace over time (3 mpk biw, day 4): 423 ± 86 mm^3 | tumor volume trace over time (3 mpk biw, day 7): 706 ± 152 mm^3 | tumor volume trace over time (3 mpk biw, day 9): 991 ± 245 mm^3 | tumor volume trace over time (3 mpk biw, day 11): 1149 ± 313 mm^3 | T/C (3 mpk biw, day 14): 69.9% | TGI (3 mpk biw, day 14): 31.4% | tumor volume trace over time (3 mpk biw, day 14): 1764 ± 471 mm^3 | Tumor Volume (3 mpk, biw, day 14, Mean ± SEM): 1764 ± 471 mm^3 | tumor volume trace over time (10 mpk biw, day 0): 106 ± 8 mm^3 | tumor volume trace over time (10 mpk biw, day 2): 181 ± 21 mm^3 | tumor volume trace over time (10 mpk biw, day 4): 272 ± 38 mm^3 | tumor volume trace over time (10 mpk biw, day 7): 339 ± 86 mm^3 | tumor volume trace over time (10 mpk biw, day 9): 321 ± 85 mm^3 | tumor volume trace over time (10 mpk biw, day 11): 343 ± 92 mm^3 | T/C (10 mpk biw, day 14): 13.8% | TGI (10 mpk biw, day 14): 89.9% | tumor volume trace over time (10 mpk biw, day 14): 350 ± 105 mm^3 | Tumor Volume (10 mpk, biw, day 14, Mean ± SEM): 350 ± 105 mm^3 | body weight effect (all mice): maintained their bodyweight well

Source: patent publication US10441663B2, “Methods for treating cancer” (Bicycle Therapeutics Limited, priority 2016, dated 2019)
